The test system of one data set is SARS-CoV-2. The experiment in a line: Antiviral activity against SARS-COV-2 infected in African green monkey Vero cells assessed as reduction in virus induced cytopathic effect preincubated with cells for 15 mins followed by viral infection and measured after 2 days by RT-PCR analysis. It counts as functional, organism-based. The following applies: Severe acute respiratory syndrome coronavirus 2, Vero.

Data set [1] is described as follows: Cytotoxicity against African green monkey Vero cells by Celltiter blue assay. To be noted: chlorocebus sabaeus. It is filed as toxicity, cell-based. On the technique in general: Alamar Blue is a resazurin reagent that responds to reducing activity.
Data set [2] is described as follows: Selectivity index, ratio of CC50 for African green monkey Vero cells to EC50 for SARS-COV-2. It is filed as toxicity. The following applies: read-out: Ratio CC50/EC50.
The subject of another data set is Zika virus. The experiment in a line: Antiviral activity against Zika virus GZ01/2016 infected in African green monkey Vero cells assessed as reduction in virus induced cytopathic effect preincubated with cells for 12 hrs followed by viral infection and measured after 48 hrs by qRT-PCR analysis. It is filed as functional, organism-based. To be noted: GZ01/2016, Vero. For orientation: Protection from cytopathic effect is a common read-out in antiviral testing.

The nature of data set [3]: Antiproliferative against African green monkey Vero cells incubated for 40 hrs by Celltiter assay. To be noted: chlorocebus sabaeus. It is filed as toxicity, cell-based.
Data set [4] can be described thus: Selectivity index, ratio of CC50 for African green monkey Vero cells to EC50 for Zika virus GZ01/2016 infected in African green monkey Vero cells. To be noted: read-out: Ratio CC50/EC50. It is filed as toxicity.
A further data set concerns dengue virus type 2. The experiment in a line: Antiviral activity against Dengue virus 2 infected in African green monkey Vero cells assessed as reduction in virus induced cytopathic effect preincubated with cells for 12 hrs followed by viral infection and measured after 48 hrs by qRT-PCR analysis. It is filed as functional, organism-based.
A short description of data set [5]: Selectivity index, ratio of CC50 for African green monkey Vero cells to EC50 for Dengue virus 2 infected in African green monkey Vero cells. The following applies: read-out: Ratio CC50/EC50. It is filed as toxicity.
The nature of data set [6]: Antiproliferative against African green monkey Vero cells. It is filed as toxicity, cell-based. The following applies: chlorocebus sabaeus.
For the next data set, the system named is Zaire ebolavirus. In words: Antiviral activity against Zaire ebolavirus infected in African green monkey Vero cells assessed as reduction in virus induced cytopathic effect preincubated with cells for 1 hr followed by viral infection and measured after 48 hrs. It counts as functional, organism-based.
The nature of data set [7]: Cytotoxicity against African green monkey Vero cells by MTT assay. It counts as toxicity, cell-based. The following applies: chlorocebus sabaeus.
Data set [8] in a line: Selectivity index, ratio of CC50 for African green monkey Vero cells to EC50 for Zaire ebolavirus infected in African green monkey Vero cells. It is filed as toxicity. To be noted: read-out: Ratio CC50/EC50.
The next data set relates to Influenza A virus. The experiment in a line: Antiviral activity against Influenza A virus A/California/7/2009(H1N1) strain infected in A549 cells assessed as reduction in viral infection incubated for 48 hrs by qPCR analysis. It is filed as functional, organism-based. To be noted: A549, 48 h.
The subject of the next data set is A549. The experiment in a line: Cytotoxicity against human A549 cells by MTT assay. It is filed as functional. (Tetrazolium assays rely on reduction of a dye to a coloured formazan, in cell work by metabolically active cells.)
A short description of data set [9]: Selectivity ratio of CC50 for human A549 cells to EC50 for Influenza A virus A/California/7/2009(H1N1) strain infected in A549 cells. It counts as toxicity, cell-based. To be noted: read-out: Ratio CC50/EC50.

Where only a bound is given, the exact number is not on record here.

The term EC50 denotes the concentration needed to bring the measured effect to its halfway point. What is called EC90 is the concentration needed for an effect of 90%. Usually CC50 stands for the concentration giving 50% cytotoxicity. `CC[C@H]1OC(=O)[C@H](C)[C@@H](O[C@H]2C[C@@](C)(OC)[C@@H](O)[C@H](C)O2)[C@H](C)[C@@H](O[C@@H]2O[C@H](C)C[C@H](N(C)C)[C@H]2O)[C@](C)(O)C[C@@H](C)CN(C)[C@H](C)[C@@H](O)[C@]1(C)O` [AZITHROMYCIN]: the EC50 worked out at 2.12 µM in the data set with SARS-CoV-2; 6.59 µM with Zika virus; 3.71 µM with dengue virus type 2; 5.1 µM with Zaire ebolavirus; 68 µM in the data set on Influenza A virus. For the same molecule, in the data set on SARS-CoV-2 (48.25 h, time 2895 min), the EC90 worked out at 8.65 µM. For the same molecule, the half-maximal cytotoxic concentration (CC50) in [1] is > 40 µM; in [6], 810 µM; in data set [7], > 130 µM; with A549 it was > 600 µM. Also, the selectivity ratio was > 19 in [2]; 123 in data set [4]; 218 in data set [5]; > 25 in data set [8]; > 8.8 in data set [9]. Moreover, in [3], the half-maximal cytotoxic concentration (CC50) at 40 h worked out at 810 µM.

Source of the values: ChEMBL document CHEMBL5244259, “Azithromycin: The First Broad-spectrum Therapeutic” (Eur J Med Chem, 2020).
